Data: patent publication US20260069671A1, “MICELLE COMPRISING AMPHIPHILIC PEPTIDE, AND ANTIGEN CARRIER NANOPARTICLE USING SAME” (RTAB CO., LTD., priority 2022, published 2026)

Assays:
[1] = Nanoparticle size measurement with Zetasizer Nano ZS; assay type: physicochemical; settings: diluted in ultrapure water, room temperature, triplicate mean +/- standard deviation
Description: Recombinant amphiphilic peptides and hapten peptides were produced and provided by Anygen in Gwangju, Korea. In order to prepare nanoparticles (particulate soluble hapten) using amphiphilic peptides, amphiphilic peptides (peptides of SEQ ID NOs: 1 to 4, respectively) were dissolved in distilled water at a concentration of 4 mg/mL. Then, hapten peptides (peptides of SEQ ID NOs: 5 to 11, respectively) were dissolved in distilled water at a concentration of 0.5 mg/mL. Afterwards, a fixed amount of hapten (50 μg) was mixed with two different amounts of amphiphilic peptide at a ratio of 3:1 and 1:3 (w/w) and incubated for 30 minutes at room temperature (25° C.).
In order to characterize the sizes of amphiphilic peptides and nanoparticles, the diameters of micelles and nanoparticles formed by amphiphilic peptides (carriers) were measured with a Zetasizer Nano ZS system (Malvern Instruments, Malvern, UK). After digestion, the micelle stock solution was added to the cuvette. After 30-minute incubation, nanoparticles were diluted to a final volume of 1 mL. The average size was then analyzed with Dispersion Technology software 4.3. Nanoparticles were diluted using ultrapure water (refractive index 1.33, viscosity 0.89) and used for analysis at room temperature. Observations were presented as triplicate means +/−standard deviation.

BALB/c mice [2] = assay: ELISA of hapten peptide-specific IgG/IgM in blood of immunized mice; assay type: in vivo, mouse; settings: FIG. 6
Description: (§1) Female BALB/C mice were purchased from Nara Biotech, Seoul, Korea, were 6 weeks old, and were bred under pathogen-free conditions. This study was conducted in accordance with the strict guidelines for the care and use of laboratory animals of the National Institutes of Health. The protocol was approved by the Animal Care Committee of Hanyang University Animal Hospital. For immunization, nanoparticles were emulsified with aluminum hydroxide (20 mg/100 μL, Sigma-Aldrich, St Louis, MO, USA). The mice were injected with 150 μg carrier dissolved in 150 μL phosphate buffered saline (PBS). The mice were injected with 50 μg hapten dissolved in 150 μL PBS. The mice were injected with 3:1 (w/w) nanoparticles (150 μg carrier and 50 μg hapten) combined with 150 μL PBS and 40 mg aluminum hydroxide. The mice were injected with 1:3 (w/w) nanoparticles (16.67 μg carrier and 50 μg hapten) combined with 150 μL PBS and 40 mg aluminum hydroxide. All groups were injected by intraperitoneal route and again on day 21. Blood was collected through the jugular vein twice a week and centrifuged at 2,000 g for 20 minutes. Serum was collected from centrifuged blood and frozen at −20° C. until being analyzed by ELSIA. The mice were sacrificed on day 35. Whole blood was collected and centrifuged at 2,000 g for 20 minutes. Serum was collected from centrifuged blood and frozen at −20° C. until being analyzed by dot blot. […]

BALB/c mice [3] = assay: Antibody detection by dot blot in serum of immunized mice; assay type: in vivo, mouse; settings: serum of day 35, serially diluted recombinant protein, FIG. 10
Description: as §1, with “The mice were injected with 1:3 (w/w) nanoparticles (16.67 μg carrier and 50 μg hapten) combined with 150 μL PBS and 40 mg aluminum hydroxide. All groups were injected by intraperitoneal route and again on day 21. Blood was collected through the jugular vein twice a week and centrifuged at 2,000 g for 20 minutes.” left out, “The mice were sacrificed on day 35. Whole blood was collected and centrifuged at 2,000 g for 20 minutes.” left out
For determination of nanoparticle (or hapten peptide)-specific antibodies, serial dilutions of the recombinant protein were seeded on PVDF membranes at a concentration of 1.2 μg/μL to 12 ng/μL. […] Afterwards, the enhanced chemiluminescence solution (ECL) was treated with a membrane and directly analyzed with chemiscope 3400 (CLINX, China). […]

[4] = tested on: CD19 positive B cells reacting with DDOST protein labeled with Alexa 647; assay: Live cell flow cytometry of hapten-specific B cells in splenocytes of immunized mice; assay type: in vivo, mouse; settings: FIG. 11
Description: as §1, with “All groups were injected by intraperitoneal route and again on day 21. Blood was collected through the jugular vein twice a week and centrifuged at 2,000 g for 20 minutes.” left out, “The mice were sacrificed on day 35. Whole blood was collected and centrifuged at 2,000 g for 20 minutes.” left out
(§2) In order to identify nanoparticle (or hapten peptide)-specific lymphocyte populations, live cell flow cytometry was performed. […] After rinsing, the cells were filtered through a 40 μm cell strainer and counted. […]

[5] = tested on: hapten and CD8 specific T cells; assay: Live cell flow cytometry of hapten-specific cytotoxic T cells in splenocytes of immunized mice; assay type: in vivo, mouse
Description: as §1, with “All groups were injected by intraperitoneal route and again on day 21. Blood was collected through the jugular vein twice a week and centrifuged at 2,000 g for 20 minutes.” left out, “The mice were sacrificed on day 35. Whole blood was collected and centrifuged at 2,000 g for 20 minutes.” left out
as §2

mice = assay: Comparison of antibodies induced by nanoparticles and by the KLH conjugate method (FIG. 7); assay type: in vivo, mouse; settings: compared with keyhole limpet hemocyanin method
Description: In addition, when the antibodies identified by Western blot were pre-reacted with the incomplete water-soluble antigen (lower panel of FIG. 7), all bands disappeared, confirming that all antibodies that were produced were specifically generated against the incomplete water-soluble antigen. After completion of the experiment, the spleens of the used animals were removed, splenocytes were isolated, and the analysis of B cells and T cells was performed through flow cytometry.

Substance: RRRVVVVVV (micelle self-assembly) [Carrier, amphiphilic peptide of three arginines and six valines forming micelles by self-assembly]
- Z-ave [1]: 193.8 ± 97.3 nm·days
- expression of hapten peptide-specific IgG and IgM antibodies in mouse blood (BALB/c mice [2]): no significant increase
- hapten peptide-specific IgG dots (dot blot) (BALB/c mice [3]): no concentrated dots
- change in ratio of B cells responding to the target protein [4]: no significant change
- hapten-specific B cells, lower gating group ([4]; splenocytes day 35, Alexa 647 positive channel): 15.1%
- change in proportion of CD8 T cells reacting to the target protein ([5]; FIG. 12): did not show significant changes
- hapten and CD8 specific T cells, lower gating group ([5]; splenocytes day 35, FIG. 12): 0.78%

Substance: keyhole limpet hemocyanin
- antibody production (FIG. 7, top panel) (mice): antibodies were produced
